# Measurements published in patent US8383673B2, “Nitridoosmium(VI) complexes for treatment of cancer” (priority 2010, dated 2013).
# Like-named read-outs stand apart in the source and are kept apart here.
# How the values were obtained:
# HeLa cells = assay: MTT assay of Compound 8 with and without cisplatin; assay type: cell-based, human; conditions: for IC50: MTT, 3 days incubation
# Method: Compound 8 was tested in the MTT assay to determine its effects with and without cisplatin (see FIG. 1). Assays of cytotoxicity were conducted in 96-well, flat-bottomed microtitre plates. The supplemented culture medium (MEM, 40 μL) with HeLa cells (1×10^5 cells per mL) was added to the wells. Compound 8 was dissolved in the culture medium with 0.5% DMSO with concentrations ranged from 5 μM to 100 μM, and aliquots (10 μL) of the solutions were subsequently added to a set of wells containing the HeLa cells. To examine the synergistic effect of cisplatin, cisplatin was dissolved in the culture medium in order to prepare solutions with concentrations of 0, 0.2, 2 and 6 μM. Aliquots of the cisplatin solutions (50 μL) were added to different sets of the wells containing compound 8 and the HeLa cells. Cells for control experiments were treated with supplemented media with 0.5% DMSO (100 μL). The microtitre plates were incubated at 37° C. in a humidified atmosphere of 5% CO2/95% air for a further 3 days. Assessment of cytotoxicity was carried out by using a modified method of the Mosmann-based 3-(4,5-dimethylthiazol-2-yl)-2,5-diphenyltetrazolium bromide (MTT) assay [T. Mosmann, J. Immunol. Methods 1983, 65, 55]. At the end of the incubation period, MTT solution (10 μL, Cell Proliferation Kit I, Roche) was added into each well and the cultures were incubated further for 4 h at 37° C. in a humidified atmosphere of 5% CO2/95% air. A solubilizing solution (100 μL) was added into wells to lyse the cells and to solubilize the formed formazan complex. The microtitre plates were maintained in a dark, humidified chamber overnight. The formation of formazan was measured by using a microtitre plate reader at 550 nm and the percentages of cell survival were determined. The cytotoxicity was evaluated based on the percentage cell survival in a dose-dependent manner relative to the control.
# [1] = test system: human cervix epitheloid carcinoma (HeLa) cell line; assay: Microculture Tetrazolium Test (MTT assay), cytotoxicity in HeLa cell line; assay type: cell-based
# Method: The cytotoxicity of the complexes was tested by using human cervix epitheloid carcinoma (HeLa) cell line. In this respect the following method was selected.
# The antiproliferation activity of these nitridoosmium compounds was examined on human tumor cell lines in the Microculture Tetrazolium Test (MTT assay) with continuous active substance exposition (24 h for compound 1-7; 48 h for compound 8-11). In this regard, adherent monolayer cultures of HeLa cell line were used.
# Culture conditions: The cells were kept in 10 cm^2 culture plates at 37° C. and moist atmosphere (5% CO2). Dulbecco's Modified Eagle's Medium (DMEM) was used as culture medium, with 1% antibiotic-antimycotic and 10% fetal bovine serum.
# Test execution: Cell were harvested from culture plates by trypsinization and seeded in 100 μL aliquots in complete culture medium into 96-well microculture plates. Cell density of about 4800 cells/well was chosen in order to ensure exponential growth throughout drug exposure. Cells were allowed to settle for 24 h, followed by the addition of dilutions of the test compounds, which were dissolved in DMSO, in 100 μL/well complete culture medium (<1% DMSO) and incubation for 24 h (compound 1-7) or 48 h (compound 8-11). At the end of exposure, drug solutions were replaced by 100 μL/well DMEM medium with 10% MTT solution in phosphate-buffered saline (5 mg/ml PBS). After incubation for 1 h at 37° C., medium was removed, and the reduced formazan product formed by the metabolic activity of vital cells was dissolved in 100 μL DMSO per well. Optical densities at a wavelength of 570 nm were measured with a microplate reader. The quantity of vital cells was expressed in terms of T/C values by comparison to untreated control microcultures, and IC50 values were calculated from concentration-effect curves by logarithmic interpolation. Evaluation is based on means from at least three independent experiments, each comprising four replicates per concentration level.
# [2] = test system: human non-small cell lung cancer cells NCI-H460; conditions: for tumor weight: twice a week, eight injections, end of study (30 days), Mean ± SD; for inhibition rate (%): tumor growth inhibition by tumor weight vs negative group
# Method: In vitro cultured human non-small cell lung cancer cells NCI-H460 (from ATCC) were inoculated in nude mice (SPF grade BALB/c-nu male nude mice were purchased from Medical Laboratory Animal Center, Guangdong Province) subcutaneously. The in vivo anti-cancer properties of Os1 (Compound 8) and Os2 (Compound 1) given by intraperitoneal injection were examined by measuring the tumor nodule size of the nude mice.
# Each nude mouse was inoculated subcutaneously with 0.2 mL of 7.5×10^6 cells/mL of NCI-H460 cells suspended in culture medium.
# Experimental Procedure: 16-18 g male BALB/c-nu nude mice were inoculated subcutaneously 0.2 mL of the NCI-H460 cell suspension (1.5×10^6 cells/rats). The day after inoculation (administration day 1), the nude mice were randomly divided into eight groups and were grouped as follows:
# 1) positive group (cyclophosphamide 30.0 mg/kg, intraperitoneal injection)
# 2) negative group (20% PET, intraperitoneal injection)
# 3) Os1 groups (three treatment groups: 10, 3, 1 mg/kg, intraperitoneal injection)
# 4) Os2 groups (three treatment groups: 10, 3, 1 mg/kg, intraperitoneal injection)
# Mice in each group were received treatment twice a week, with a total number of eight injections. Tumor sizes were measured every 3 days. The treated mice were sacrificed at the end of the study period (30 days) with anatomical separation of tumor nodules. The tumors were weighed and photographed.
# The inhibition rate of tumor growth was determined using the following formula: Tumor growth inhibition rate (%)=(1−mean tumor weight of the treatment/mean tumor weight of the negative group)×100%. Tumor volume=longest dimension (mm)×[shortest dimension of the tumor (mm)]^2/2. All measurements were expressed in Mean±SD, using SPSS 10.0 for statistical analysis.
compound,measurement,setting,value
"N.N.[Cl][Pt][Cl] [Cisplatin, cisplatin, reference compound]",IC50,HeLa cells; single agent,7.5 µM
"Cc1cc(C)[nH]n1.Cc1cc(C)[nH]n1.[N]#[Os]([Cl])([Cl])[Cl] [Compound 10, trans-[Os^VI(N)(3,5-dimethylpyrazole)2Cl3]]",IC50,[1]; 48 h exposure (compound 8-11),< 100 µM
"Cc1ccn[nH]1.Cc1ccn[nH]1.[N]#[Os]([Cl])([Cl])[Cl] [Compound 11, trans-[Os^VI(N)(5-methylpyrazole)2Cl3]]",IC50,[1]; 48 h exposure (compound 8-11),< 100 µM
"O=P1(N(CCCl)CCCl)NCCCO1 (centres unmarked) [positive control, cyclophosphamide, reference compound]",Tumor volume/mm^3,"[2]; 30 mg/kg i.p., day 14",168.16 mm^3
same,Tumor volume/mm^3,"[2]; 30 mg/kg i.p., day 18",227.03 mm^3
same,Tumor volume/mm^3,"[2]; 30 mg/kg i.p., day 22",318.64 mm^3
same,Tumor volume/mm^3,"[2]; 30 mg/kg i.p., day 26",378.31 mm^3
same,Tumor volume/mm^3,"[2]; 30 mg/kg i.p., day 30",778.84 mm^3
same,tumor weight,[2]; 30.0 mg/kg i.p.,0.6095 ± 0.5477 g
same,inhibition rate (%),[2]; 30.0 mg/kg i.p.,74.04%
[Os^VI(N)(5-Brsalpa)(OH2)Cl] [Compound 3],IC50,[1]; 24 h exposure (compound 1-7),< 25 µM
[Os^VI(N)(5-Clsalpa)(OH2)Cl] [Compound 2],IC50,[1]; 24 h exposure (compound 1-7),< 25 µM
[Os^VI(N)(5-MeOsalpa)(OH2)Cl] [Compound 5],IC50,[1]; 24 h exposure (compound 1-7),< 25 µM
[Os^VI(N)(5-Mesalpa)(OH2)Cl] [Compound 4],IC50,[1]; 24 h exposure (compound 1-7),< 25 µM
[Os^VI(N)(5-NO2salpa)(OH2)Cl] [Compound 6],IC50,[1]; 24 h exposure (compound 1-7),< 100 µM
[Os^VI(N)(pyrazole)2Cl3] [Compound 8],Tumor volume/mm^3,"[2]; 1 mg/kg i.p., day 14",288.12 mm^3
same,Tumor volume/mm^3,"[2]; 1 mg/kg i.p., day 18",518.99 mm^3
same,Tumor volume/mm^3,"[2]; 1 mg/kg i.p., day 22",801.59 mm^3
same,Tumor volume/mm^3,"[2]; 1 mg/kg i.p., day 26",1319.35 mm^3
same,Tumor volume/mm^3,"[2]; 1 mg/kg i.p., day 30",1569.69 mm^3
same,tumor weight,[2]; 1 mg/kg i.p.,1.7206 ± 0.4289 g
same,Tumor volume/mm^3,"[2]; 3 mg/kg i.p., day 14",482.89 mm^3
same,Tumor volume/mm^3,"[2]; 3 mg/kg i.p., day 18",1043.37 mm^3
same,Tumor volume/mm^3,"[2]; 3 mg/kg i.p., day 22",1140.42 mm^3
same,Tumor volume/mm^3,"[2]; 3 mg/kg i.p., day 26",1537.35 mm^3
same,Tumor volume/mm^3,"[2]; 3 mg/kg i.p., day 30",2262.38 mm^3
same,tumor weight,[2]; 3 mg/kg i.p.,2.0631 ± 1.1693 g
same,Tumor volume/mm^3,"[2]; 10 mg/kg i.p., day 14",534.98 mm^3
same,Tumor volume/mm^3,"[2]; 10 mg/kg i.p., day 18",901.64 mm^3
same,Tumor volume/mm^3,"[2]; 10 mg/kg i.p., day 22",1422.37 mm^3
same,Tumor volume/mm^3,"[2]; 10 mg/kg i.p., day 26",2004.80 mm^3
same,Tumor volume/mm^3,"[2]; 10 mg/kg i.p., day 30",2511.59 mm^3
same,tumor weight,[2]; 10 mg/kg i.p.,2.7711 ± 1.0732 g
same,inhibition rate (%),[2]; 1 mg/kg i.p.,26.73%
same,inhibition rate (%),[2]; 3 mg/kg i.p.,12.14%
same,inhibition rate (%),[2]; 10 mg/kg i.p.,−18.01%
same,IC50,[1]; 48 h exposure (compound 8-11),< 25 µM
same,effectiveness in the MTT assay compared with cisplatin,HeLa cells,more effective than cisplatin
same,IC50,HeLa cells; single agent,3.8 µM
same,IC50,HeLa cells; with cisplatin 0.1 μM,4.19 µM
same,IC50,HeLa cells; with cisplatin 1.0 μM,3.38 µM
same,IC50,HeLa cells; with cisplatin 3.0 μM,4.7 µM
same,synergistic effect of cisplatin administered with the compound,HeLa cells; cisplatin 0.1-3.0 μM,does not provide any synergistic effect
[Os^VI(N)(salpa)(OH2)Cl] [Compound 1],Tumor volume/mm^3,"[2]; 1 mg/kg i.p., day 14",380.21 mm^3
same,Tumor volume/mm^3,"[2]; 1 mg/kg i.p., day 18",710.06 mm^3
same,Tumor volume/mm^3,"[2]; 1 mg/kg i.p., day 22",726.71 mm^3
same,Tumor volume/mm^3,"[2]; 1 mg/kg i.p., day 26",1365.02 mm^3
same,Tumor volume/mm^3,"[2]; 1 mg/kg i.p., day 30",1110.38 mm^3
same,tumor weight,[2]; 1 mg/kg i.p.,1.2164 ± 0.6547 g
same,Tumor volume/mm^3,"[2]; 3 mg/kg i.p., day 14",420.80 mm^3
same,Tumor volume/mm^3,"[2]; 3 mg/kg i.p., day 18",500.45 mm^3
same,Tumor volume/mm^3,"[2]; 3 mg/kg i.p., day 22",1011.29 mm^3
same,Tumor volume/mm^3,"[2]; 3 mg/kg i.p., day 26",1032.38 mm^3
same,Tumor volume/mm^3,"[2]; 3 mg/kg i.p., day 30",1390.62 mm^3
same,tumor weight,[2]; 3 mg/kg i.p.,1.3542 ± 0.5337 g
same,Tumor volume/mm^3,"[2]; 10 mg/kg i.p., day 14",507.33 mm^3
same,Tumor volume/mm^3,"[2]; 10 mg/kg i.p., day 18",671.87 mm^3
same,Tumor volume/mm^3,"[2]; 10 mg/kg i.p., day 22",1342.17 mm^3
same,Tumor volume/mm^3,"[2]; 10 mg/kg i.p., day 26",1601.47 mm^3
same,Tumor volume/mm^3,"[2]; 10 mg/kg i.p., day 30",2188.17 mm^3
same,tumor weight,[2]; 10 mg/kg i.p.,2.1535 ± 1.4884 g
same,deaths of treated mice,[2]; high-dose group (10 mg/kg i.p.),one treated mouse died at day 7 and one died at day 19
same,deaths of treated mice,[2]; middle dose group (3 mg/kg i.p.),one treated mouse died at day 23 and one died at day 26
same,inhibition rate (%),[2]; 1 mg/kg i.p.,48.20%
same,inhibition rate (%),[2]; 3 mg/kg i.p.,42.33%
same,inhibition rate (%),[2]; 10 mg/kg i.p.,8.29%
same,IC50,[1]; 24 h exposure (compound 1-7),< 25 µM
tran-[Os^VI(N)(indazole)2Cl3] [Compound 9],IC50,[1]; 48 h exposure (compound 8-11),< 25 µM
